# Assay results: patent US20140249143A1, “Compounds And Methods For Enhancing Innate Immune Responses” (GlaxoSmithKline LLC, priority 2011, published 2014)
# B1: IFNγ: type II interferon used as control treatment (100 U/ml) (protein, UniProt P01579 24-161, looked up)
# Interferon gamma: QDPYVKEAENLKKYFNAGHSDVADNGTLFLGILKNWKEESDRKIMQSQIVSFYFKLFKNFKDDQSIQKSVETIKEDMNVKFFNSNKKKRDDFEKLTNYSVTDLNVQRKAIHELIQVMAELSPAAKTGKRKRSQMLFRG
# B2: murine IFNα: murine IFNα2 administered intravenously to mice (30 ug/kg) as comparator (protein, UniProt P01573 24-190, looked up)
# Interferon alpha-2: CDLPHTYNLRNKRALKVLAQMRRLPFLSCLKDRQDFGFPLEKVDNQQIQKAQAIPVLRDLTQQTLNLFTSKASSAAWNATLLDSFCNDLHQQLNDLQTCLMQQVGVQEPPLTQEDALLAVRKYFHRITVYLREKKHSPCAWEVVRAEVWRALSSSVNLLPRLSEEKE
# What was measured:
# [1] = system: ISG56 (Interferon-Stimulated Gene 56) promoter ISRE; assay: ISG56 luciferase reporter assay in HEK 293 cells; assay type: cell-based; settings: Homo sapiens, HEK293; HEK 293 reporter, 24 hours; 100% = small molecule control test compound; read-out: ISG56 (Average Max Response) %
# Protocol: Compounds of the present invention were tested against a HEK (Human Embryonic Kidney) 293 cell line that was stably transfected with a firefly luciferase reporter gene under the control of the ISG56 (Interferon-Stimulated Gene 56) promoter ISRE (Interferon-Stimulated Response Element). While the ISRE is in the opposite orientation of the wild type promoter, literature^1 cites that the response elements are pallindromic and function properly in either orientation. ^1Reich, N., Evans, B., Levy, D., Fahey, D., Knight, E., Damell, J. E. (1987) Interferon-induced transcription of a gene encoding a 15-kDa protein depends on an upstream enhancer element. See, Proc. Natl. Acad. Sci. 84, (6394-6398).
# In preparation for the assay, test compounds were serially diluted 3-fold in DMSO from a typical top concentration of 5 mM and plated at 0.2 μL in a 384-well, polystyrene, tissue culture treated plate with lid (Greiner Bio-One North America, Inc., Monroe, N.C.) to generate 11-point dose response curves in the assay. Low control wells (0% response) contained 0.2 μL of DMSO alone, and high control wells (100% response) contained 0.2 μL of a small molecule control test compound.
# Frozen stocks of the transfected HEK 293 cells were washed and recovered in DMEM I Ham's F-12 media (Invitrogen Corporation, Carlsbad, Calif.) supplemented with 10% v/v qualified Australian fetal bovine serum (FBS) (Invitrogen Corporation, Carlsbad, Calif.), 1× GlutaMAX™ (Invitrogen Corporation, Carlsbad, Calif.), 1×MEM non-essential amino acids (NEAA) (Invitrogen Corporation, Carlsbad, Calif.) and 500 μg/ml Geneticin® (Invitrogen Corporation, Carlsbad, Calif.). The cells were diluted to 500,000 cells/mL in the supplemented DMEM/Ham's F-12 media, and 20 μL of the cell suspension were added to each well of the previously prepared 384-well compound plate, resulting in 10,000 cells/well. The plate, with lid, were placed in a 37° C., 5% CO2 humidified incubator for 24 hours.
# Following incubation, the plates were removed and placed on the bench top without lids to equilibrate to room temperature for 30 minutes. Steady-Glo® (Promega Corporation, Madison, Wis.) was prepared according to the manufacturer's instructions, and 10 μL were added to each plate well. After a twenty minute incubation at room temperature, luminescence was read on a ViewLux™ (PerkinElmer Inc., Waltham, Mass.).
# The data for dose responses were plotted as % activation versus compound concentration following normalization using the formula 100*((U−C1)/(C2−C1)), where U was the unknown value, C1 was the average of the low (0% response) control wells and C2 was the average of the high (100% response) control wells. Curve fitting was performed with the equation y=A+((B−A)/(1+(10^x/10^C)^D)), where A was the minimum response, B was the maximum response, C was the log(EC50) and D was the Hill slope. The results for each test compound were recorded as pEC50 values (—C in the above equation) and as max response values at a given concentration.
# [2] = system: reconstructed human epidermis (RHE) keratinocytes; assay: JAK/STAT induction in reconstructed human epidermis (western blot, real-time PCR); assay type: cell-based; settings: 10 μM (IFN-alpha 100 U/mL), 6 and 72 hrs
# Protocol: First, reconstructed human epidermis (“RHE”) consisting of cultured human keratinocyte cells were incubated in triplicate with media containing either the media alone, media+0.1% DMSO, media containing 10 μM of several putative JAK/STAT activator compounds described herein in Tables 1 and 2 (Example 1, Example 2, Example 11, and compound no. 89 (as a negative control)), or media containing 100 U/mL of a positive control Interferon-alpha (IFN-alpha) recombinant protein at 37° C. in a humidified atmosphere containing 5% CO2, for 6 and 72 hours.
# At the end of the incubation period, the RHE tissues were cut into two sections. One section was ¼ of the total size and the second section was […].
# [3] = system: HCV genotype 1b subgenomic replicon; assay: Anti-Hepatitis C replicon assay, genotype 1b (luciferase); assay type: cell-based; settings: Hepatitis C virus; luciferase activity measured 48 hours later; read-out: HCV Genotype 1B Replicon pEC50 (converted)
# Protocol: (§1) Compounds were assayed for activity against HCV using the genotype 1a and 1b subgenomic replicon model systems. Stable cell lines bearing the genotype 1a and 1b replicons were used for screening of compounds. Both replicons are bicistonic and contain the firefly luciferase gene. The ET cell line is stably transfected with RNA transcripts harboring a I389luc-ubi-neo/NS3-3′/ET replicon with firefly luciferase-ubiquitin-neomycin phosphotransferase fusion protein and EMCV-IRES driven NS3-5B polyprotein containing the cell culture adaptive mutations (E1202G; T1280I; K1846T) (Krieger at al, 2001 and unpublished). The genotype 1a replicon is a stable cell line licensed from Apath LLC, modified to contain the firefly luciferase gene. The cells were grown in DMEM, supplemented with 10% fetal calf serum, 2 mM Glutamine, Penicillin (100 IU/mL)/Streptomycin (100 μg/mL), 1× nonessential amino acids, and 250-500 μg/mL G418 (“Geneticin”). They were all available through Life Technologies (Bethesda, Md.). The cells were plated at 0.5×10^4 cells/well in 384 well plates containing compounds. The final concentration of compounds ranged between 0.03 pM to 50 μm and the final DMSO concentration of 0.5-1%.
# (§2) Luciferase activity was measured 48 hours later by adding a Steady glo (Promega, Madison, Wis.). Percent inhibition of replication data was plotted relative to no compound control. Under the same condition, cytotoxicity of the compounds was determined using cell titer glo (Promega, Madison, Wis.). IC50s were determined from a 10 point dose response curve using 3-4-fold serial dilution for each compound, which spans a concentration range>1000 fold. BioAssay determines the level of inhibition for each compound by normalizing cross-talk corrected plate values against the negative (low or background, cells with no compound present) and positive (high DMSO, no cells) controls to determine Percent Inhibition:
# (§3) These normalized values are exported to IC50 where they are plotted against the molar compound concentrations using the standard four parameter logistic equation: […]
# [4] = system: HCV genotype 1a subgenomic replicon; assay: Anti-Hepatitis C replicon assay, genotype 1a (luciferase); assay type: cell-based; settings: Hepatitis C virus; luciferase activity measured 48 hours later; read-out: HCV Genotype 1A Replicon pEC50 (converted)
# Protocol: as §1, §2, §3
# human JAK1 = target: T1, human JAK1 (Homo sapiens, UniProt P23458); assay: JAK1 reconstitution in U4A and 2fGH cells (phosphor-STAT1 western blot, Taqman mRNA); assay type: cell-based; settings: 100 U/ml
# T1 construct: expressed in transfected cells; host or cells: U4A cells (JAK1-deficient derivative of the human fibroblast line 2fGH), transduced with a baculovirus mammalian expression system
# T1 sequence (P23458 whole entry): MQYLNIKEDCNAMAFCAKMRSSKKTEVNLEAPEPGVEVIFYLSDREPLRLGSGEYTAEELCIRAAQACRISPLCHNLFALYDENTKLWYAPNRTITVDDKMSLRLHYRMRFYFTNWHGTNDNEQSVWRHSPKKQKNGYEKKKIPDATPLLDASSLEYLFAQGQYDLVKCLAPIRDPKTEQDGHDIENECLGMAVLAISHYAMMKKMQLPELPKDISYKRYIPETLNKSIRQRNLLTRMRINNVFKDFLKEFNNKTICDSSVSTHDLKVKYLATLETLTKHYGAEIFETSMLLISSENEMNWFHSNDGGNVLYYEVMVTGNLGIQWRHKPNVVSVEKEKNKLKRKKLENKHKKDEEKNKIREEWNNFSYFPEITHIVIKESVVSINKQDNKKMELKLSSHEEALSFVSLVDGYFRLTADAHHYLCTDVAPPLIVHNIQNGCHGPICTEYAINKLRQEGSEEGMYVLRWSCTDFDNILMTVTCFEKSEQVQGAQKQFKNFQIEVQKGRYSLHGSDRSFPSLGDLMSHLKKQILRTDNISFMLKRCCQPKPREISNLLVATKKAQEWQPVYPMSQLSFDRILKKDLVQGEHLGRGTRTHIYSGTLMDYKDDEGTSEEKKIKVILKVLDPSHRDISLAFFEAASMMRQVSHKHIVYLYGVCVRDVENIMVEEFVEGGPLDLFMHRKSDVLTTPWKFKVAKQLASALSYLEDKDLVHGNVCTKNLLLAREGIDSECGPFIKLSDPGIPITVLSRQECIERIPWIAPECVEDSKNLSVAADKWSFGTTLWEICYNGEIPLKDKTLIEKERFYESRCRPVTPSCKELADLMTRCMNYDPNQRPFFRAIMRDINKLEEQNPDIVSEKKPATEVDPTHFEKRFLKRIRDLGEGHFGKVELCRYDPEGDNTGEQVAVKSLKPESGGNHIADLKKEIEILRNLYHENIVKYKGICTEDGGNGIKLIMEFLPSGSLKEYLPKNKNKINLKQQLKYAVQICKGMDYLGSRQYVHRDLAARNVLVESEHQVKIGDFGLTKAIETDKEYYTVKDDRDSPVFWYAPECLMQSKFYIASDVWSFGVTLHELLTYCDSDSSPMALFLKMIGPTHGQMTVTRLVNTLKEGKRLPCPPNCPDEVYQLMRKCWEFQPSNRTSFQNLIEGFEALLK
# Protocol: 2fGH and U4A cells were obtained from the Cleveland Clinic. 2fGH is a human fibroblast cell line and U4A cell line is a derivative 2fGH harboring a defect in JAK1 expression (Muller, et al., Nature 366, 129-135 (1993)). Green fluoroscent protein (GFP) or human JAK1 was transduced in U4A cells by baculovirus mammalian expression system. After 24 hours post transduction, the cells were treated with DMSO, Example 1 (10 μM), IFNα (100 U/ml), IFNβ (100 U/ml), or IFNγ (100 U/ml). Untransduced U4A cells and 2fGH cells were included as controls for 6 or 18 hours. The cells were harvested at indicated time points and used for detecting phosphor-STAT1 by western blot (FIG. 10, panel A) or for mRNA analysis by Taqman quantitation (FIG. 10, panel B).
# The total cell lysates were analyzed on a 4-20% SDS-PAGE gradient gel and followed by immunoblotting using anti-phopho STAT1 antibody (Cell Signaling). The level of actin was monitored as a loading control. The bands were visualized by the alkaline phosphatase activity conjugated with the secondary antibody (Promega) using ProtoBlot II AP system (Promega).
# (§4) Gene expression was measured using TaqMan Fast Universal PCR Master Mix (Applied Biosystems) and gene specific probes and murine primers in HT7900 FAST System (Invitrogen). As housekeeping genes, actin and GAPDH were used for normalization. Data was calculated by the ΔΔCt method and fold change determined compared to non-treated control samples.
# ISGs and cytokines mRNA = assay: Induction of ISGs in mice in vivo; parameters: species or system Balb/c mice; settings: Example 1 oral 300 mg/kg; murine IFNα2 30 ug/kg intravenously
# Protocol: Naive Balb/c mice were purchased from Charles River Laboratories (Wilmington, Mass.) and administered with murine IFNα2 (30 ug/kg) intravenously or administered with oral Example 1 (300 mg/kg in 30/70% solutol/polyethylene glycol 400). The mice were then euthanized by CO2 inhalation at 0.5, 2, 6, 8, and 24 hours for sample collection. Four mice per dose group were tested.
# For RNA isolation, the blood was collected in an RNAprotect™ tube (Qiagen) and processed with RNeasy Protect™ animal blood kit (Qiagen) according to the manufacturer's protocol. To preserve RNA, 30-200 mg of tissue pieces were stored in RNAlater™ solution (Invitrogen) until use. For RNA isolation, the thawed tissues were homogenized using a TissueLyser™ system (Qiagen) and processed with RNeasy 96 Universal Tissue Kit™ (Qiagen) according to the manufacturer's protocol. To remove DNA contamination, on-plate DNase digestion was included during the RNA purification.
# as §4, with “For real time RT-PCR, cDNA was made using High Capacity cDNA Reverse Transcription Kit™ (Applied Biosystems). Gene” for “Gene”, “Mix™” for “Mix”, “System™” for “System”
Molecule,Emax [1] [%],Stat1 phosphorylation (western blot) [2],EC50 [3] [µM],EC50 [4] [µM],expression of CXCL9 in 2fGH cells (human JAK1),up-regulation of ISGs at 24 hours (ISGs and cytokines mRNA)
"FC(F)(F)c1cc(C2CCCC2)nc2c1ccc1nc(-c3nnco3)cn12 [Compound 2, 2-[2-cyclopentyl-4-(trifluoromethyl)imidazo[1,2-a]1,8-naphthyridin-8-yl]-1,3,4-oxadiazole]",31,Stat1 phosphorylation,0.251,0.0501,–,–
"FC(F)(F)c1cc(C(F)(F)F)c2ccc3nc(-c4nnco4)cn3c2c1 [Compound 24, 2-[6,8-bis(trifluoromethyl)imidazo[1,2-a]quinolin-2-yl]-1,3,4-oxadiazole]",5.75,–,3.16,0.631,–,–
"FC(F)(F)c1cc(C(F)(F)F)c2ccc3nc(-c4ccco4)cn3c2n1 [Compound 25, 8-(furan-2-yl)-2,4-bis(trifluoromethyl)imidazo[1,2-a]1,8-naphthyridine]",6.5,–,3.16,3.98,–,–
"Cc1cc(C)c2ccc3nc(-c4nnco4)cn3c2n1 [Compound 26, 2-{2,4-dimethylimidazo[1,2-a]1,8-naphthyridin-8-yl}-1,3,4-oxadiazole]",8,–,5.01,6.31,–,–
"FC(F)(F)c1cc(C(F)(F)F)c2ccc3nc(-c4ncco4)cn3c2n1 [Compound 27, 2-[2,4-bis(trifluoromethyl)imidazo[1,2-a]1,8-naphthyridin-8-yl]-1,3-oxazole]",29,–,6.31,2.51,–,–
"FC(F)(F)c1cc(C(F)(F)F)c2ccc3[nH]c(-c4cnco4)nc3c2n1 [Compound 28, 5-[6,8-bis(trifluoromethyl)-3H-imidazo[4,5-h]quinolin-2-yl]-1,3-oxazole]",11.5,–,7.94,10,–,–
"FC(F)(F)c1cc(Cl)nc2c1ccc1nc(-c3nnco3)cn12 [Compound 29, 2-[2-chloro-4-(trifluoromethyl)imidazo[1,2-a]1,8-naphthyridin-8-yl]-1,3,4-oxadiazole]",10,–,7.94,6.31,–,–
B1,–,–,–,–,only observed with IFNγ treatment,–
B2,–,–,–,–,–,evidently diminished
